Consider three compounds from publication PMC6812009, “Covalent Aurora A regulation by the metabolic integrator coenzyme A” (Redox Biology, 2019).

The target in experiment [1] is T1, Aurora A (inactive), unphosphorylated (PP1-treated) (Homo sapiens, UniProt O14965).
T1 construct: For enzyme and DSF assays, full-length human Aurora A and Aurora B and 1–43 TPX2 were produced; made in house; host or cells: E. coli
T1 sequence (O14965 1-403): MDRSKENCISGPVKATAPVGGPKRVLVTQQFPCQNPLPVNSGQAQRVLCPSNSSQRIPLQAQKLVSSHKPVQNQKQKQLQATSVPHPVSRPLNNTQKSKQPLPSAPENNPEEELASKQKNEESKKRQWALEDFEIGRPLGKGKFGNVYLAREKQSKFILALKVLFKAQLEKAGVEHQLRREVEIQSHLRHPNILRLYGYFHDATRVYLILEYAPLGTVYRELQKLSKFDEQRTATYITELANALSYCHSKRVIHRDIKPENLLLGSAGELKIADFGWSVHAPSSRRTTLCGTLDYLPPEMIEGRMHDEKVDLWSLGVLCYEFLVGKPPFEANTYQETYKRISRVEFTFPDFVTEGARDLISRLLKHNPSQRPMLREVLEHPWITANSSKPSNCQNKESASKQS
In words: Lanthascreen Eu Kinase FRET binding assay. Here is the method:
(§1) A Lanthascreen Eu Kinase FRET Binding Assay (Invitrogen) was employed to determine IC50 values for the interaction of Aurora A with CoA, dpCoA, ATP, and ADP. […] Recombinant Aurora A was incubated with Europium-conjugated anti-histidine tag antibody and an Alexa Fluor 647-labelled tracer, which binds to the ATP binding pocket of Aurora A. The close proximity of the anti-histidine (epitope-tag) antibody and the tracer results in a high degree of FRET (fluorescence resonance energy transfer) from the europium donor fluorophore to the Alexa Fluor 647 acceptor fluorophore. ATP-competitive inhibitors, such as CoA, displace the tracer from the active site, causing a loss of FRET signal. Assay set-up was performed as described by the manufacturer. Briefly, the time-resolved fluorescence resonance energy transfer assay (TR-FRET) was performed in black, low volume 384 well plates (Corning). Each well contained 5 nM kinase, 2 nM Eu-anti-His antibody and 10 nM kinase tracer 236 in kinase buffer A (50 mM Hepes pH 7.5, 10 mM MgCl2, 1 mM […], 0.01% (v/v) Brij-35), varying amounts of CoA, dpCoA, ATP, and ADP. The reaction mix was incubated for 1h at room temperature. The signal was measured at 665/620 nm emission ratio using BMG LABTECH plate reader (PHERAstar). All assays were performed using duplicates. The 11-point response curves were generated using GraphPad Prism software from the inhibition data generated.
(In TR-FRET formats the signal depends on donor and acceptor labels being close together.)

The target in experiment [2] is T2, Aurora A (active), T288 phosphorylated (Homo sapiens, UniProt O14965).
T2 construct: For enzyme and DSF assays, full-length human Aurora A and Aurora B and 1–43 TPX2 were produced; made in house; host or cells: E. coli
T2 sequence (O14965 1-403): T1 sequence (O14965 1-403)
Nature of the experiment: Lanthascreen Eu Kinase FRET binding assay. The settings on record: for IC50: T288 phosphorylated Aurora A, read-out: Aurora A (active) IC50 (μM), binding assay. The protocol: as §1

The target of a further experiment is T3, MARK4 (Homo sapiens, UniProt Q96L34).
T3 sequence (Q96L34 1-752): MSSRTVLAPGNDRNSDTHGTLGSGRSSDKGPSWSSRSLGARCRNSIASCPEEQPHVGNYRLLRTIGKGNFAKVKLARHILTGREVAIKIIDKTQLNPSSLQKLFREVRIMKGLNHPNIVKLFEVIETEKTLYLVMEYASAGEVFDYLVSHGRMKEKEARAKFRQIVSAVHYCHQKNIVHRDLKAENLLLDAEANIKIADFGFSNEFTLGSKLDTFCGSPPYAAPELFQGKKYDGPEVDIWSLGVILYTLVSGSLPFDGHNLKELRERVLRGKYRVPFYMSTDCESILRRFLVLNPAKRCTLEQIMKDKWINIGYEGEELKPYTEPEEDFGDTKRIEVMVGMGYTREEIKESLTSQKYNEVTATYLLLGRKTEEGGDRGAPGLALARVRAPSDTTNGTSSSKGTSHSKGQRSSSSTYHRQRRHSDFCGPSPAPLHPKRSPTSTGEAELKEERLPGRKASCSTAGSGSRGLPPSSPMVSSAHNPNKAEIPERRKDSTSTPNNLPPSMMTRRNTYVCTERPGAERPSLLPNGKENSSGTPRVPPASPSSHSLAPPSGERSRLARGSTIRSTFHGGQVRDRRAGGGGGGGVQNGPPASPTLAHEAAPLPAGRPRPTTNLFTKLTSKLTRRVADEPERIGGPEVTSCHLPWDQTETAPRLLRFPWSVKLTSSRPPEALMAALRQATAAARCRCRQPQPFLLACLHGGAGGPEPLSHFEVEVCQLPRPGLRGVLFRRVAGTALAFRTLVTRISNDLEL
In words: Kinase profiling screen (radioactive filter-binding assay). The class given is biochemical. The settings on record: 100 μM compound, 50 μM ATP; read-out: Kinase activity, % of activity in the absence of inhibitor. The protocol: (§2) Profiling of 117 protein kinases with CoA, dpCoA and ADP was carried out at the International Centre for Protein Kinase Profiling at the University of Dundee. Each compound was tested in vitro, in duplicate, at 100 μM final concentration using recombinant kinases, model substrates and optimal concentrations of ATP. Bacterially expressed full-length His-Aurora A was used to determine the IC50 value for CoA (in the presence or absence of DTT), dpCoA, ADP and desulfo-CoA. The assay was performed in the presence of 5 μM competing ATP. To examine whether the inhibitory effect of CoA on Aurora A is modulated by TPX2, IC50 values for CoA were also generated in the presence and absence of 1 μg TPX2 (residues 1–43) fragment.

A further experiment relates to AMPK. The experiment is described as above. Particulars: 100 μM compound, 50 μM ATP. The class given is biochemical, human. The protocol:
as §2

The subject of a further experiment is ROCK 2. Described as above. The settings on record: 100 μM compound, 20 μM ATP. The class given is biochemical, human. Here is the method:
as §2

The subject of a further experiment is CAMKK. The description is as above. The settings on record: 100 μM compound, 20 μM ATP. The class given is biochemical, human. Here is the method: as §2

pIC50: −log10 of the molar value. Like-named read-outs stand apart in the source and are kept apart here.

As for `CC(C)(COP(=O)(O)OP(=O)(O)OCC1OC(n2cnc3c(N)ncnc32)C(O)C1O)C(O)C(=O)NCCC(=O)NCCS` (stereo not shown) [dpCoA, dephospho-CoA], the IC50 (as a rule, the concentration needed to halve the response being measured) in experiment [1] is more than 100 µM; in experiment [2], 0.3 nM. Further, the activity at 100 µM on MARK4 was determined as 86.6%. For the same compound, the results for the “Kinase activity, % of activity in the absence of inhibitor” value (from here on “Kinase activity, % … of inhibitor”) in the experiment on AMPK, in the experiment with ROCK 2 and in the experiment on CAMKK were 75.9%, 96.4% and 71.4%, respectively.

As to `CC(C)(COP(=O)(O)OP(=O)(O)OC[C@H]1O[C@@H](n2cnc3c(N)ncnc32)[C@H](O)[C@@H]1OP(=O)(O)O)[C@@H](O)C(=O)NCCC(=O)NCCS` [CoA, Coenzyme A], the IC50 is 0.28 µM in experiment [1] and 0.01 nM in experiment [2]. Moreover, the activity at 100 µM at MARK4 is 87.7%. Moreover, the “Kinase activity, % … of inhibitor” value in the experiment on AMPK amounted to 90.8%; with ROCK 2, 94.3%; in the experiment on CAMKK it was 97.4%.

As to `Nc1ncnc2c1ncn2C1OC(COP(=O)(O)OP(=O)(O)O)C(O)C1O` (stereo not shown) [ADP], the 50% inhibitory concentration (IC50) worked out at 1.3 µM in experiment [1] and 170 nM in experiment [2]. Also, the pIC50 – broadly, the negative decadic logarithm of the IC50, by convention in mol/L – in experiment [2] (read-out: IC50 for the interaction of active Aurora A) is approximately 3.75. Besides, the activity at 100 µM at MARK4 came out at 49.1%. The “Kinase activity, % … of inhibitor” value in the experiment on AMPK came to 54.1%; in the experiment with ROCK 2, 57.8%; with CAMKK, 52.9%.
